Literature values as cited in US11332491B2, “E-selectin antagonist compounds, compositions, and methods of use” (GLYCOMIMETICS, INC., priority 2011, dated 2022).

Test system: human AML engrafted in NODscid IL2Rgc-/- mice
Details: ASH 2011 abstracts

Compound: c1cc(CN2CCCNCCNCCCNCC2)ccc1CN1CCCNCCNCCCNCC1 [plerixafor]
- mobilization of human AML: approximately 2 fold
